Like-named read-outs stand apart in the source and are kept apart here.
How the values were obtained:
[1] = Stability in methanolic solution; format: physicochemical; conditions: stock 1 mg/mL in methanol
[2] = system: human liver microsomes (HLM); assay: Metabolic stability using human liver microsomes; format: in vitro ADME
Description: Table 9 summarizes the experimental conditions used in the studies of the metabolic stability of the compound of Formula (Ia) using dog liver microsomes and human liver microsomes.

Sprague-Dawley rats = assay: Infarct volume after transient middle cerebral artery occlusion, ischemia/reperfusion (I/R); format: in vivo, rat
Experimental: Sprague-Dawley rats were used to study the effects of (Ia) on reperfusion injury following stroke in a rodent model. The rats were anesthetized, and injected with (la) (0.01-0.1 mg/kg). After 30 minutes, occlusion of the middle cerebral artery (MCA) was performed.
The detailed methodology for permanent middle cerebral artery occlusion (MCAO) and transient (I/R) occlusion of the middle cerebral artery has been published previously.^46 Briefly, animals were placed in a David Kopf stereotaxic frame (Tujunga, Calif.), and the right middle cerebral artery (MCA) approached through a rostral-caudal incision of the skin and frontalis muscle at the approximate level of bregma. Blood flow through the MCA was impeded by the placement of surgical suture behind the MCA at three designated positions along the exposed vessel. The sutures were positioned so that the middle of each suture applied pressure to the underside of the MCA and impeded blood flow as confirmed using laser Doppler flowmetry (OxyFlo, Oxford-Optronix, Oxford, UK; Ref. 46). This three-point placement of surgical sutures produced a highly reproducible and consistent focal ischemic lesion (permanent ischemia) restricted to the prefrontal cerebral cortex. For transient I/R, the sutures were left in place for 30 min and then removed (reperfusion) to allow blood flow to return to the area for an additional 5.5 h (209 rats received I/R). In 12 rats, sutures were left in place for 6 h as a model of permanent ischemia.
To examine the effect of the compound of Formula (Ia) on I/R-induced cell death, injections of the compound of Formula (Ia) (0.01, 0.05, 0.1, or 0.5 mg/kg; 1 ml/kg iv; n=4 per group) or vehicle (25% EtOH; 1 ml/kg iv; n=6) were made 30 min prior to the onset of MCAO. The sutures were left in place for 30 min and removed. Reperfusion was allowed for 5.5 h, and the experiment was terminated.
To determine whether the compound of Formula (Ia) was neuroprotective when administered during the 30-min period of occlusion, injections of the compound of Formula (Ia) at a dose that produced optimal neuroprotection based on the dose-response-curve described above (0.1 mg/kg; 1 ml/kg iv; n=4) or vehicle (25% EtOH; 1 mi/kg iv; n=4) were made 15 min following the onset of MCAO. After a further 15 min, the sutures were removed to allow for an additional 5.5 h of reperfusion.
To examine the effect of the compound of Formula (Ia) on reperfusion injury alone, injections of the optimal dose of the compound of Formula (Ia) (0.1 mg/kg; 1 ml/kg iv; n=4 per group) or vehicle (1 ml/kg iv; n=4 or 5 per group) were made following 30 min of MCAO, immediately prior to the removal of the sutures, or 30, 60, 90, 120, or 180 min following suture removal (start of reperfusion). In all cases, the experiments were terminated following 5.5 h of reperfusion.
To determine whether the compound of Formula (Ia) required bioactivation and/or metabolism to an active intermediate to produce neuroprotection, the effect of direct intracortical injections of the compound of Formula (Ia) on infarct volume were investigated in the present model of transient occlusion (I/R). The compound of Formula (Ia) (0.01, 0.1, 0.5, or 1.0 μM in 200 n1; n=4 per group) or the same volume of vehicle (0.0125% EtOH; 200 n1; n=6) was injected into the ipsilateral hemisphere (bregma—0.3 mm, lateral—5.5 mm and depth of—3.0 mm from the dorsal surface of the brain)^47 10 min prior to suture placement followed by 30 min of MCAO and 5.5 h of reperfusion.
To examine the effect of the compound of Formula (Ia) on the change in infarct volume over the 5.5 h of reperfusion, injections of the optimal dose of the compound of Formula (Ia) (0.1 mg/kg; 1 ml/kg iv; n=4 per group) or vehicle (25% EtOH; 1 ml/kg iv; n=4) were made 30 min prior to the onset of MCAO. The sutures were left in place for 30 min. […]

N27 neuronal cells = assay: DNA fragmentation ELISA after hydrogen peroxide exposure of N27 neuronal cells; format: cell-based; conditions: pretreatment 100 μM
Experimental: Specifically, the effects of (Ia) on oxidative stress in N27 neuronal cells, a dopaminergic cell line were studied. […]
The cells were then lysed, and DNA fragmentation was determined by ELISA assay.

## COc1cc(C(C)=O)ccc1OC(=O)CCCCC1CCSS1 (stereo not shown) [compound of Formula (Ia)]
[1]
  stability in methanolic solution: stable
[2]; HLM control (without NADPH)
  % Metabolism in 30 minutes: 0%
  CLintr (mL/min/g liver): >67 mL/min/g liver
[2]; HLM reaction (with NADPH)
  % Metabolism in 30 minutes: 0%
  CLintr (mL/min/g liver): >67 mL/min/g liver
Un-treated plasma, 0 h
  % Change with time: 100.00%
Un-treated plasma, <1 min
  % Change with time: 0.00%
Immediate extraction, no stabilizer
  % remaining in spiked plasma sample: ~0%
Plasma + Formic acid, 0 h
  % Change with time: 100.00%
Plasma + Formic acid, 10 min
  % Change with time: 2.00%
Plasma + Formic acid, <1 min
  % Change with time: 15.00%
Plasma + Sodium fluoride, 0 h
  % Change with time: 100.00%
Plasma + Sodium fluoride, <1 min
  % Change with time: 2.00%
rat/dog blood and plasma
  stability in biological matrix: unstable
With combination of DV and FA
  time stabilized in plasma: up to 4 h
Sprague-Dawley rats; 0.1 mg/kg iv 15 min into 30-min MCAO (15 min prior to reperfusion)
  infarct volume after 5.5 h reperfusion vs vehicle: significant neuroprotection
Sprague-Dawley rats; 0.1 mg/kg iv 30 min following the start of reperfusion
  infarct volume after 5.5 h reperfusion vs vehicle: significant decreases in infarct volume
Sprague-Dawley rats; 0.1 mg/kg iv 30 min prior to MCAO, 30 min MCAO, 5.5 h reperfusion
  infarct volume following I/R vs vehicle: significant decrease in infarct volume
Sprague-Dawley rats; 0.1 mg/kg iv 30 min prior to MCAO, end of 5.5 h of reperfusion
  mean infarct volume smaller than the vehicle group: ~53%
Sprague-Dawley rats; 0.1 mg/kg iv 30 min prior to MCAO, measured at 4 h
  mean infarct volume vs vehicle, time course: significantly smaller
Sprague-Dawley rats; 0.1 mg/kg iv 30 min prior to MCAO, measured at 6 h
  mean infarct volume vs vehicle, time course: significantly smaller
Sprague-Dawley rats; 0.1 mg/kg iv 60 min following the start of reperfusion
  infarct volume after 5.5 h reperfusion vs vehicle: significant decreases in infarct volume
Sprague-Dawley rats; 0.1 mg/kg iv 90 min following the start of reperfusion
  infarct volume after 5.5 h reperfusion vs vehicle: significant decreases in infarct volume
Sprague-Dawley rats; 0.1 mg/kg iv 120 min following suture removal
  infarct volume after 5.5 h reperfusion vs vehicle: did not result in a significant difference in infarct volume
Sprague-Dawley rats; 0.1 mg/kg iv 180 min following suture removal
  infarct volume after 5.5 h reperfusion vs vehicle: did not result in a significant difference in infarct volume
Sprague-Dawley rats; 0.1 mg/kg iv at time 0 (start of reperfusion)
  infarct volume after 5.5 h reperfusion vs vehicle: significant decreases in infarct volume
Sprague-Dawley rats; 0.5 mg/kg iv 30 min prior to MCAO, 30 min MCAO, 5.5 h reperfusion
  infarct volume following I/R vs vehicle: significant decrease in infarct volume
Sprague-Dawley rats; 0.01, 0.05, 0.1, 0.5 mg/kg iv 30 min prior to MCAO, 30 min MCAO, 5.5 h reperfusion
  neuroprotection (infarct volume) following I/R: dose-dependent neuroprotection
Sprague-Dawley rats; Example 3, 0.01-0.1 mg/kg injected 30 minutes before MCA occlusion, vs ethanol vehicle
  stroke infarct volume: dose-dependent reduction in stroke infarct volume
Sprague-Dawley rats; I/R model, iv
  dose required to produce significant neuroprotection: 0.1 mg/kg
Sprague-Dawley rats; direct intracortical preinjection 1.0 μM (200 nl) 10 min pre-MCAO
  infarct volume following I/R vs vehicle: significant decrease in infarct volume
Sprague-Dawley rats; optimal dose (0.1 mg/kg iv)
  latest administration time giving significant neuroprotection, following the start of reperfusion: up to 90 min
N27 neuronal cells
  DNA fragmentation induced by hydrogen peroxide reduced by: 73%
N27 neuronal cells; then hydrogen peroxide (1 mM), n = 4
  DNA cell fragmentation: 138 ± 20 percentage of control

— patent US9012492B2, “Apocynin-lipoic acid conjugates and uses thereof” (priority 2011, dated 2015)
